# PubChem BioAssay (NCI)
#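 Briefly, cells in 96-well plates were exposed to five compound concentrations for 48 h, and endpoints were estimated by linear interpolation. The concentration for full growth arrest is given as TGI.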
# Tests used:
# Assay in all cases: NCI tumour cell line growth inhibition, 48 h
# [1] = test system: SW-620 colon
# [2] = test system: NCI/ADR-RES ovarian
# [3] = test system: HOP-62 NSCLC
# [4] = test system: SK-MEL-28 melanoma
# [5] = test system: NCI-H460 lung
# [6] = test system: DMS 273 small cell lung
# [7] = test system: MCF7 breast
# [8] = test system: CCRF-CEM leukemia
# [9] = test system: HOP-92 NSCLC
# [10] = test system: IGROV1 ovarian
# [11] = test system: KM12 colon
# [12] = test system: HT29 colon
# [13] = test system: RPMI-8226 leukemia
# [14] = test system: K-562 leukemia
# [15] = test system: UACC-62 melanoma
# [16] = test system: OVCAR-3 ovarian
# [17] = test system: DMS 114 small cell lung
# [18] = test system: HOP-18 NSCLC
# [19] = test system: OVCAR-8 ovarian
# [20] = test system: RXF 393 renal
# [21] = test system: UACC-257 melanoma
# [22] = test system: COLO 205 colon
# [23] = test system: UO-31 renal
# [24] = test system: SK-OV-3 ovarian
# [25] = test system: CAKI-1 renal
# [26] = test system: XF 498 CNS
# [27] = test system: U251 CNS
# [28] = test system: HCT-15 colon
# [29] = test system: NCI-H522 lung
# [30] = test system: M19-MEL melanoma
# [31] = test system: A549 NSCLC
# [32] = test system: OVCAR-4 ovarian
# [33] = test system: SN12C renal
# [34] = test system: KM20L2 colon
# [35] = test system: MOLT-4 leukemia
# [36] = test system: SK-MEL-2 melanoma
# [37] = test system: LOX IMVI melanoma
# [38] = test system: P388 leukemia
# [39] = test system: HCC-2998 colon
# [40] = test system: NCI-H23 lung
# [41] = test system: A498 renal
# [42] = test system: SNB-19 CNS
# [43] = test system: SNB-78 CNS
# [44] = test system: SNB-75 CNS
# [45] = test system: EKVX NSCLC
# [46] = test system: SF-539 CNS
# [47] = test system: OVCAR-5 ovarian
# [48] = test system: SF-295 CNS
# [49] = test system: SF-268 CNS
# [50] = test system: HCT-116 colon
# [51] = test system: HL-60(TB) leukemia
# [52] = test system: DLD-1 colon
# [53] = test system: MALME-3M melanoma
# [54] = test system: SK-MEL-5 melanoma
# [55] = test system: NCI-H226 lung
# [56] = test system: SN12K1 renal
# [57] = test system: P388/ADR leukemia
smiles,measurement,setting,value
CCCCCCCCCCCCCCCCNCC(O)CN (stereo not drawn),TGI,[1],3.17 µM
same,TGI,[2],4.72 µM
same,TGI,[3],33.4 µM
same,TGI,[4],25.8 µM
same,TGI,[5],3.56 µM
same,TGI,[6],14.3 µM
same,TGI,[7],6.47 µM
same,TGI,[8],3.72 µM
same,TGI,[9],9.36 µM
same,TGI,[10],18.9 µM
same,TGI,[11],3.66 µM
same,TGI,[12],4.44 µM
same,TGI,[13],4.52 µM
same,TGI,[14],3.35 µM
same,TGI,[15],17 µM
same,TGI,[16],6.52 µM
same,TGI,[17],21 µM
same,TGI,[18],14 µM
same,TGI,[19],12.3 µM
same,TGI,[20],8.16 µM
same,TGI,[21],23.7 µM
same,TGI,[22],3.81 µM
same,TGI,[23],25.3 µM
same,TGI,[24],35.9 µM
same,TGI,[25],30 µM
same,TGI,[26],23.9 µM
same,TGI,[27],6.26 µM
same,TGI,[28],4.38 µM
same,TGI,[29],33.2 µM
same,TGI,[30],5.79 µM
same,TGI,[31],10.2 µM
same,TGI,[32],12.1 µM
same,TGI,[33],12.9 µM
same,TGI,[34],7.19 µM
same,TGI,[35],4.87 µM
same,TGI,[36],36.2 µM
same,TGI,[37],3.45 µM
same,TGI,[38],2.68 µM
same,TGI,[39],5.84 µM
same,TGI,[40],16.8 µM
same,TGI,[41],41.9 µM
same,TGI,[42],36 µM
same,TGI,[43],5.83 µM
same,TGI,[44],11 µM
same,TGI,[45],44.6 µM
same,TGI,[46],4.72 µM
same,TGI,[47],19.7 µM
same,TGI,[48],6.93 µM
same,TGI,[49],12.9 µM
same,TGI,[50],3.64 µM
same,TGI,[51],4.93 µM
same,TGI,[52],3.66 µM
same,TGI,[53],30.2 µM
same,TGI,[54],27 µM
same,TGI,[55],25.6 µM
same,TGI,[56],3.44 µM
C[N+](C)(C)CCOC(=O)/C=C/c1cnc[nH]1,TGI,[1],> 500 µM
same,TGI,[2],> 500 µM
same,TGI,[3],> 500 µM
same,TGI,[4],> 500 µM
same,TGI,[5],> 500 µM
same,TGI,[6],> 500 µM
same,TGI,[7],> 500 µM
same,TGI,[8],> 500 µM
same,TGI,[9],> 500 µM
same,TGI,[10],> 500 µM
same,TGI,[11],> 500 µM
same,TGI,[12],> 500 µM
same,TGI,[13],> 500 µM
same,TGI,[14],> 500 µM
same,TGI,[15],> 500 µM
same,TGI,[16],> 500 µM
same,TGI,[17],> 500 µM
same,TGI,[18],> 500 µM
same,TGI,[19],> 500 µM
same,TGI,[20],> 500 µM
same,TGI,[21],> 500 µM
same,TGI,[22],> 500 µM
same,TGI,[23],> 500 µM
same,TGI,[24],> 500 µM
same,TGI,[25],> 500 µM
same,TGI,[26],> 500 µM
same,TGI,[27],> 500 µM
same,TGI,[28],> 500 µM
same,TGI,[29],> 500 µM
same,TGI,[30],> 500 µM
same,TGI,[31],> 500 µM
same,TGI,[32],> 500 µM
same,TGI,[33],> 500 µM
same,TGI,[34],> 500 µM
same,TGI,[35],> 316 µM
same,TGI,[36],> 500 µM
same,TGI,[37],> 500 µM
same,TGI,[38],> 500 µM
same,TGI,[39],> 500 µM
same,TGI,[40],> 500 µM
same,TGI,[41],> 500 µM
same,TGI,[42],> 500 µM
same,TGI,[43],> 500 µM
same,TGI,[44],> 500 µM
same,TGI,[45],> 500 µM
same,TGI,[46],> 500 µM
same,TGI,[47],> 500 µM
same,TGI,[48],> 500 µM
same,TGI,[49],> 500 µM
same,TGI,[50],> 500 µM
same,TGI,[51],> 500 µM
same,TGI,[57],> 316 µM
same,TGI,[52],> 500 µM
same,TGI,[53],> 500 µM
same,TGI,[54],> 500 µM
same,TGI,[55],> 500 µM
same,TGI,[56],> 500 µM
